Experimental data published in patent publication US20080070852A1, “3-Beta-D-Ribofuranosylthiazolo[ 4,5-D] Pyridimine Nucleosides and Uses Thereof” (priority 2004, published 2008).
Where two headings read alike, the source gives them in different places.

Columns and labels:
[1] = system: interferon alpha (Mu-IFN-α); assay: Murine interferon alpha in plasma of dosed mice; assay type: in vivo
Description: The normal mouse provides a useful system for the assessment of the degree to which the inventions described herein provide material improvement in the oral delivery of 1 (isatoribine). Not only can one measure the plasma concentrations of isatoribine arising from oral administration of the said prodrug(s) but also the extensive immunological research conducted in the mouse has provided reagents suitable for measuring the levels of interferon alpha, a cytokine of interest reflecting one of the desired biologic activities of isatoribine.
Table 1 records the results of an assay for murine interferon alpha in the plasma of mice that were dosed two times with isatoribine, formulated in bicarbonate, at a level of 50 mg/kg by the oral route.
Table 2 records the results of assays for murine interferon alpha in the plasma of mice that first were dosed with bicarbonate and then four hours later were dosed orally with isatoribine, formulated in bicarbonate, at a level of 50 mg/kg. Interferon was reported in the plasma from four mice, including two that had received the bicarbonate vehicle dose.
Table 3 records the results of assays for murine interferon alpha in the plasma of mice that were dosed orally with val-isatoribine, dissolved in bicarbonate, at a dose that is equivalent to 50/mg/kg of isatoribine on a molar basis. […] Interferon was detected in all mice assayed at a given time point, indicating the reliability of the effect following val-isatoribine administration.
In other experiments, plasma levels of isatoribine and interferon alpha were measured in mice that were dosed with isatoribine by the intravenous route, and these levels were compared to the levels of isatoribine and interferon alpha arising after oral administration of val-isatoribine. […] Thus, oral val-isatoribine provides levels of isatoribine and interferon that are approximately 50% of those observed after intravenous administration of isatoribine itself.

[2] = Recovery of 1 in urine after intravenous administration; assay type: in vivo; settings: read-out: recovery of administered dose in the urine as intact 1
Description: Reference values for compound I were obtained by similar procedures after either oral or intravenous dosing. […] For this reason, in some experiments the amount of 1 in urine collected over a period of 24 hours after dosing was used to assess compounds.

beagle dogs [3] = settings: dog, in vivo, iv, 12.5 mg/kg
Description: (§1) Formal toxicology studies of intravenously administered isatoribine and orally administered isatoribine and val-isatoribine were conducted in beagle dogs.
(§2) In each case the compound was administered as a solution, by gavage or by intravenous infusion. Multiple parameters were assessed, as is customary in a toxicology study. In the studies providing higher potential exposure to isatoribine, the plasma concentration of isatoribine was assessed by a LC/MS method.

in vivo = settings: beagle, dog, iv, 12.5 mg/kg
Description: as §1, §2

beagle dogs [4] = settings: cited from earlier work
[5] = Toxicology studies in beagle dogs (GI tolerance); settings: beagle, dog, iv; for AUC(0-t): plasma
Description: as §1, §2

beagle dogs [6] = assay: Toxicology studies in beagle dogs (GI tolerance); settings: dogs
Description: as §1, §2

[7] = dogs, Oral Isatoribine, applied dose 2.5 mg/kg
[8] = IV Isatoribine, applied dose 25 mg/kg

Nc1nc2c(sc(=O)n2[C@@H]2O[C@H](CO)[C@@H](O)[C@H]2O)c(=O)[nH]1 [Compound 1, 5-amino-3-β-D-ribofuranosylthiazolo[4,5-d]pyrimidine-2,7-dione, reference compound]
interferon in plasma ([1]; mice, two oral 50 mg/kg doses, interval four hours): no interferon was measurable
mice with interferon detected in plasma ([1]; oral dosing, studies of Tables 1-3): 4 of the 114
dose excreted [2]: > 75%
Emesis or loose stool (beagle dogs [3]): Neg.
GI lesions or irritation (beagle dogs [3]): Neg.
AUC(0-t) (in vivo): 19500 ng·h/mL
limiting toxicity (beagle dogs [4]; dog, in vivo, po): gastrointestinal lesions
Emesis or loose stool (beagle dogs [4]; [7]): Neg.
GI lesions or irritation (beagle dogs [4]; [7]): Neg.
GI lesions or irritation (beagle dogs [4]; dogs, Oral Isatoribine, applied dose 5 mg/kg): Neg.
dogs with multiple, scattered red lesions on the intestinal mucosa (beagle dogs [4]; oral, 10 mg/kg, gross histopathologic evaluation): four of eight dogs
NOAEL ([5]; in vivo): 12.5 mg/kg
AUC(0-t) ([5]; 25 mg/kg): 42800 ng·h/mL
AUC(0-t) ([5]; 50 mg/kg): 87800 ng·h/mL
AUC(0-t) ([5]; 100 mg/kg): 209000 ng·h/mL
GI lesions (beagle dogs [6]; intravenous, necropsy or histopathologic evaluation): No lesions were seen in the GI tract
Emesis or loose stool (beagle dogs [6]; [8]): Neg.
GI lesions or irritation (beagle dogs [6]; [8]): Neg.
GI lesions or irritation (beagle dogs [6]; IV Isatoribine, applied dose 50 mg/kg): Neg.
GI lesions or irritation (beagle dogs [6]; IV Isatoribine, applied dose 100 mg/kg): Neg.
